Structures are written as SMILES. Marks after values point to notes of the source that are not given here.

This note sets out measurements from patent US20110028420A1, “Regression of Established Atherosclerotic Plaques, and Treating Sudden-Onset Asthma Attacks, using PARP Inhibitors” (priority 2008, published 2011).

Experiment [1] concerns CCR2. Put plainly: Expression of the MCP-1 receptor CCR2. The format is in vivo. The settings on record: TIQ-A-treated mice.
Experiment [2] is described as follows: Fasted plasma cholesterol and LDL (Cholestech LDX). It counts as in vivo, mice. To be noted: after overnight fasting; Group 6. On the procedure: (§1) The high-fat diet (Harlan Teklad, Madison, Wis.) contained 21% fat by weight (0.15% cholesterol). The regular diet was normal laboratory rodent chow. Controls were given i.p. injections of vehicle three times per week, during the final four weeks. Experimental Groups received i.p. injections of the PARP inhibitor thieno[2,3-c]isoquinolin-5-one (TIQ-A) (Sigma-Aldrich, St Louis, Mo.) at the rate of 3 mg/kg, three times per week, during the last 4 weeks. At the conclusion of each protocol, the mice were fasted, anesthetized with ketamine/xylazine (60 and 3 mg/kg, respectively), and blood was drawn for serum preparation.
Plasma cholesterol and LDL were analyzed using a commercially available kit according to the manufacturer's instructions (Cholestech LDX, Hayward, Calif.).

In experiment [3] the test system is C57BL/6 ApoE−/− mice. Put plainly: Histology, trichrome staining and immunohistochemistry (SMA, CD68, MCP-1) of atherosclerotic plaques. It counts as in vivo.
Text: (§2) C57BL/6 ApoE^−/− mice (Jackson Laboratory, Bar Harbor, Me.) were housed and bred in a pathogen-free animal care facility at LSUHSC (New Orleans, La.), and were given full access to laboratory rodent chow and water. Principles of laboratory animal care were followed (NIH publication No. 86-23, revised 1985). Experimental protocols were approved by the LSUHSC Animal Care and Use Committee. The animals were divided into six groups to provide proper controls, and to allow calculation of the significance of the results. All Groups were ApoE^−/− mice. The mice were fed a regular diet or a high fat diet for 12 or 16 weeks; in some cases mice that had been fed a high fat diet for 12 weeks were switched to a regular diet for the final 4 weeks (16 weeks total). Some mice were given injections of TIQ-A during the final four weeks, while others were injected with vehicle as controls:
as §1
(§3) Perfusion-fixed aortas were dissected and prepared either for en face, Oil-Red-O staining using standard protocols, or for embedding in paraffin. Tissues were sectioned and were stained following standard protocols with haematoxylin and eosin (H&E), trichrome staining, or immunohistochemistry (IHC). Lesion areas were assessed as described in K. Oumona-Benachour et al. (2007). IHC used antibodies against murine smooth muscle actin (SMA) (Santa Cruz Biotechnologies, Santa Cruz, Calif.), or antibodies against CD68. Immunoreactivity was assessed in captured images of immunostained stained sections as described in K. Oumona-Benachour et al. (2007).

Experiment [4] has as its system ICAM-1. Put plainly: Quantitative RT-PCR of ICAM-1 in thoracic aorta. The format is in vivo. To be noted: thoracic aortas of Group 6 mice. From the text:
(§4) RNA was extracted from thoracic aortas, and cDNA was generated by standard methods. PCR Primers for MCP-1 and for actin were as described in C. Hans et al., “Thieno[2,3-c]isoquinolin-5-one (TIQ-A), a potent poly(ADP-ribose) polymerase inhibitor, promotes atherosclerotic plaque regression in high fat diet-fed ApoE-deficient mice: effects on inflammatory markers and lipid content,” J. Pharm. Exp. Ther., vol. 329, pp. 150-158 (2009, published online Jan. 5, 2009). Amplification, detection, and data analysis were performed with the iCycler real-time PCR system (Bio-Rad Laboratories, Hercules, Calif.).
In addition to MCP-1, the recruitment and their retention of monocytes and macrophages within atherosclerotic plaques requires the expression of adhesion molecules by endothelial and intimal cells. In particular, the adhesion molecule ICAM-1 expression is expressed in the later stages of plaques.

For experiment [5], the system named is C57BL/6 ApoE−/− mice. Kind of experiment: Atherosclerotic plaque size and number in aortas of high-fat-diet-fed ApoE−/− mice (en face Oil-Red-O staining). The format is in vivo.
Text: as §2, §1, §3

In experiment [6] the test system is MCP-1. Kind of experiment: Quantitative RT-PCR of MCP-1 in thoracic aorta. It counts as in vivo, mice. The settings on record: normalized versus β-actin.
Text: as §4
Several pathways may play a role in the regression of plaques, including some that interfere with the recruitment and retention of monocytes, macrophages and foam cells, cells that appear to be required for the maintenance of advanced plaques. In particular, the continuing recruitment of macrophages into lesions is considered a major factor in maintaining the size and complexity of atherosclerotic plaques. […] To confirm that the decrease in CD68-positive cells was associated with reduced expression of chemotactic factors, we used quantitative RT-PCR to monitor the effect of TIQ-A on MCP-1 expression. We measured transcription of the MCP-1 gene in the thoracic aorta using primers specific for murine MCP-1. Measured values were normalized versus measured levels of transcription of the β-actin gene.

The mark [7] stands for this setting: Group 3: high fat diet for 16 weeks, TIQ-A 3 mg/kg i.p. three times per week during last 4 weeks.
[8] abbreviates: Group 6: high fat diet for 12 weeks, then regular diet during last 4 weeks with TIQ-A 3 mg/kg i.p. three times per week.

With `O=C1N=C2SCC=C2c2ccccc21` [TIQ-A, thieno[2,3-c]isoquinolin-5-one], the “Expression of the MCP-1 receptor, CCR2” value in experiment [1] is given as “no difference”. In experiment [2], the LDL level result was “significantly lowered” and the Total cholesterol level entry is listed as “significantly lowered”. Also, in experiment [3] (Group 6), the CD68 immunoreactivity entry was “significantly reduced”, the “Collagen density by trichrome staining” value is “significant increase in collagen density”, the “Fibrous cap by trichrome staining” value was “much thicker fibrous cap” and the “Foam cells in plaques” value is listed as “fewer foam cells”. In experiment [3] (Group 6), the “Plaque size by microscopic examination” value is given as “much smaller” and the “Smooth muscle actin immunoreactivity” value was “significant increase”. Also, the “MCP-1 immunoreactivity of plaques” value in experiment [3] (TIQ-A-treated mice) is “decrease”. Also, the “Expression of ICAM-1 (quantitative RT-PCR)” value in experiment [4] is on record as “significantly reduced”. Further, in experiment [5] (setting [7]), the “Plaque Number (mean ± S.D.) Abdominal Aorta” value stood at 5.7 ± 0.94, the “Plaque Number (mean ± S.D.) Thoracic Aorta” value is given as 6.0 ± 1.53, the “Plaque size (median ± S.D.) Abdominal Aorta” value is listed as 3.06 ± 0.66 mm^2 and the “Plaque size (median ± S.D.) Thoracic Aorta” value was 7.18 ± 2.02* mm^2. In experiment [5] (Group 6), the “Plaque number in the abdominal region (in words)” value is reported as “significant reduction in plaque number”; the “Regression of established plaques, thoracic and abdominal regions of the aorta” value is recorded as “statistically significant regression of established plaques”. For the same compound, in experiment [5] (setting [8]), the “Plaque Number (mean ± S.D.) Abdominal Aorta” value worked out at 4.0 ± 1.29, the “Plaque Number (mean ± S.D.) Thoracic Aorta” value came to 4.20 ± 0.69, the “Plaque size (median ± S.D.) Abdominal Aorta” value came to 1.96 ± 0.48 mm^2 and the “Plaque size (median ± S.D.) Thoracic Aorta” value is 5.12 ± 1.68*‡† mm^2. Further, the “Lesion size in the abdominal region (in words)” value in experiment [5] (Group 6, difference not statistically significant) is “trended lower”. The “Expression of MCP-1 (RT-PCR)” value in experiment [6] is listed as “significantly reduced”.
